Patent US10308650B2, “Pesticidally active tetracyclic derivatives with sulfur containing substituents” (Syngenta Participations AG, priority 2014, dated 2019)
Read-outs that look alike come from different tables or passages of the source.

Key:
Assay type in all cases: in vivo
[1] = system: Plutella xylostella (Diamond Back Moth); test: Activity against Plutella xylostella; conditions: 120 h, read-out: effect in at least one of the two categories (mortality or growth inhibition); for percent effect (mortality or growth inhibition) at 200 ppm: application rate of 200 ppm, artificial diet, L2 larvae, 5 days after infestation
Protocol: Example B8: Activity Against Plutella xylostella (Diamond Back Moth)
24-well microtiter plates with artificial diet were treated with aqueous test solutions prepared from 10,000 ppm DMSO stock solutions by pipetting. After drying, the plates were infested with L2 larvae (10 to 15 per well). The samples were assessed for mortality and growth inhibition in comparison to untreated samples 5 days after infestation.

[2] = system: Spodoptera littoralis (Egyptian Cotton Leaf Worm); test: Activity against Spodoptera littoralis (lettuce, uptake by the roots from agar); conditions: 144 h, read-out: effect in at least one of the three categories (mortality, anti-feeding, or growth inhibition); for percent effect (mortality, anti-feeding or growth inhibition) at 12.5 ppm: test rate of 12.5 ppm, lettuce grown on treated agar, Spodoptera eggs, 6 days after infestation
Description: Example B10: Activity Against Spodoptera littoralis (Egyptian Cotton Leaf Worm)
Test compounds were applied by pipette from 10,000 ppm DMSO stock solutions into 24-well plates and mixed with agar. Lettuce seeds were placed onto the agar and the multi well plate was closed by another plate which contained also agar. After 7 days the compound was absorbed by the roots and the lettuce grew into the lid plate. The lettuce leaves were then cut off into the lid plate. Spodoptera eggs were pipetted through a plastic stencil onto a humid gel blotting paper and the lid plate was closed with it. The samples were assessed for mortality, anti-feedant effect and growth inhibition in comparison to untreated samples 6 days after infestation.

[3] = system: Myzus persicae (Green Peach Aphid); test: Activity against Myzus persicae: feeding/contact activity; conditions: foliar, 144 h
Protocol: Example B5: Activity Against Myzus persicae (Green Peach Aphid): Feeding/Contact Activity
Sunflower leaf discs were placed onto agar in a 24-well microtiter plate and sprayed with aqueous test solutions prepared from 10,000 ppm DMSO stock solutions. After drying, the leaf discs were infested with an aphid population of mixed ages. The samples were assessed for mortality 6 days after infestation.

[4] = system: Bemisia tabaci (Cotton White Fly); test: Activity against Bemisia tabaci: feeding/contact activity; conditions: foliar, 144 h, application rate of 200 ppm, cotton leaf discs, adult white flies, 6 days after incubation
Protocol: Example B1: Activity Against Bemisia tabaci (Cotton White Fly): Feeding/Contact Activity
Cotton leaf discs were placed on agar in 24-well microtiter plates and sprayed with aqueous test solutions prepared from 10,000 ppm DMSO stock solutions. After drying the leaf discs were infested with adult white flies. The samples were checked for mortality 6 days after incubation.

[5] = system: Frankliniella occidentalis (Western Flower Thrips); test: Activity against Frankliniella occidentalis: feeding/contact activity; conditions: foliar, 168 h, application rate of 200 ppm, sunflower leaf discs, population of mixed ages, 7 days after infestation
Protocol: Example B4: Activity Against Frankliniella occidentalis (Western Flower Thrips): Feeding/Contact Activity
Sunflower leaf discs were placed on agar in 24-well microtiter plates and sprayed with aqueous test solutions prepared from 10,000 DMSO stock solutions. After drying the leaf discs were infested with a Frankliniella population of mixed ages. The samples were assessed for mortality 7 days after infestation.

[6] = system: Euschistus heros (Neotropical Brown Stink Bug); test: Activity against Euschistus heros; conditions: 120 h, read-out: effect in at least one of the two categories (mortality or growth inhibition); for percent effect (mortality or growth inhibition) at 200 ppm: application rate of 200 ppm, soybean leaves, N2 nymphs, 5 days after infestation
Protocol: Example B3: Activity Against Euschistus heros (Neotropical Brown Stink Bug)
Soybean leaves on agar in 24-well microtiter plates were sprayed with aqueous test solutions prepared from 10,000 ppm DMSO stock solutions. After drying the leaves were infested with N2 nymphs. The samples were assessed for mortality and growth inhibition in comparison to untreated samples 5 days after infestation.

[7] = system: Aedes aegypti (Yellow Fever Mosquito); test: Activity against Aedes aegypti; conditions: 200 ppm in ethanol, dry deposit in 12 well plates, adult females, after 48 h and/or 24 h
Protocol: Example B13: Activity Against Aedes aegypti (Yellow Fever Mosquito)
Test solutions, at an application rate of 200 ppm in ethanol, were applied to 12 well tissue culture plates. Once the deposits were dry, five, two to five day old adult female Aedes aegypti were added to each well, and sustained with a 10% sucrose solution in a cotton wool plug. Assessment of knockdown was made one hour after introduction, and mortality was assessed at 24 and 48 hours after introduction.

[8] = system: Diabrotica balteata (Corn Root Worm); test: Activity against Diabrotica balteata; conditions: 96 h, read-out: effect in at least one of the two categories (mortality or growth inhibition); for percent effect (mortality or growth inhibition) at 200 ppm: application rate of 200 ppm, maize sprouts, L2 larvae, 4 days after infestation
Protocol: Example B2: Activity Against Diabrotica balteata (Corn Root Worm)
Maize sprouts placed onto an agar layer in 24-well microtiter plates were treated with aqueous test solutions prepared from 10,000 ppm DMSO stock solutions by spraying. After drying, the plates were infested with L2 larvae (6 to 10 per well). The samples were assessed for mortality and growth inhibition in comparison to untreated samples 4 days after infestation.

[9] = system: Spodoptera littoralis (Egyptian Cotton Leaf Worm); test: Activity against Spodoptera littoralis (cotton leaf discs, spray); conditions: foliar, 72 h, read-out: control (mortality, anti-feeding effect, growth inhibition)
Protocol: Example B9: Activity Against Spodoptera littoralis (Egyptian Cotton Leaf Worm)
Cotton leaf discs were placed onto agar in 24-well microtiter plates and sprayed with aqueous test solutions prepared from 10,000 ppm DMSO stock solutions. After drying the leaf discs were infested with five L1 larvae. The samples were assessed for mortality, anti-feeding effect, and growth inhibition in comparison to untreated samples 3 days after infestation. Control of Spodoptera littoralis by a test sample is given when at least one of the categories mortality, anti-feedant effect, and growth inhibition is higher than the untreated sample.

[10] = system: Myzus persicae (Green Peach Aphid); test: Activity against Myzus persicae: intrinsic activity; conditions: 120 h
Description: Example B7: Activity Against Myzus persicae (Green Peach Aphid). Intrinsic Activity
Test compounds prepared from 10,000 ppm DMSO stock solutions were applied by pipette into 24-well microtiter plates and mixed with sucrose solution. The plates were closed with a stretched Parafilm. A plastic stencil with 24 holes was placed onto the plate and infested pea seedlings were placed directly on the Parafilm. The infested plate was closed with a gel blotting paper and another plastic stencil and then turned upside down. The samples were assessed for mortality 5 days after infestation.

[11] = system: Myzus persicae (Green Peach Aphid); test: Activity against Myzus persicae: systemic activity; conditions: 144 h
Protocol: Example B6: Activity Against Myzus persicae (Green Peach Aphid). Systemic Activity
Roots of pea seedlings infested with an aphid population of mixed ages were placed directly into aqueous test solutions prepared from 10,000 DMSO stock solutions. The samples were assessed for mortality 6 days after placing seedlings into test solutions.

[12] = system: Tetranychus urticae (Two-Spotted Spider Mite); test: Activity against Tetranychus urticae: feeding/contact activity; conditions: foliar, 192 h, application rate of 200 ppm, bean leaf discs, mixed population (mobile stages), 8 days after infestation
Protocol: Example B11: Activity Against Tetranychus urticae (Two-Spotted Spider Mite): Feeding/Contact Activity
Bean leaf discs on agar in 24-well microtiter plates were sprayed with aqueous test solutions prepared from 10,000 ppm DMSO stock solutions. After drying the leaf discs were infested with a mite population of mixed ages. The samples were assessed for mortality on mixed population (mobile stages) 8 days after infestation.

[13] = application rate of 200 ppm, sunflower leaf discs, aphid population of mixed ages, 6 days after infestation, read-out: mortality
[14] = application rate of 200 ppm, cotton leaf discs, L1 larvae, 3 days after infestation
[15] = test rate of 12 ppm, sucrose solution under Parafilm, 5 days after infestation, read-out: mortality
[16] = test rate of 24 ppm, roots of infested pea seedlings in test solution, 6 days, read-out: mortality

CCS(=O)(=O)c1cc2nc(C(F)(F)F)sc2cc1-c1nc2cc(C(F)(F)F)ncc2n1C [Compound A31, 5-ethylsulfonyl-6-[3-methyl-6-(trifluoromethyl)imidazo[4,5-c]pyridin-2-yl]-2-(trifluoromethyl)-1,3-benzothiazole]
≥ 80%: percent effect (mortality or growth inhibition) at 200 ppm [1] | percent effect (mortality, anti-feeding or growth inhibition) at 12.5 ppm [2] | mortality at 200 ppm [3, 13] | mortality at 200 ppm [4] | mortality at 200 ppm [5] | percent effect (mortality or growth inhibition) at 200 ppm [6] | pest or weed control at 200 ppm [7] | percent effect (mortality or growth inhibition) at 200 ppm [8] | mortality at 200 ppm [9, 14]

CCSc1cc2c(nc1-c1nc3cc(C(F)(F)F)ncc3n1C)CC(C)(C)O2 [Compound A58, 6-ethylsulfanyl-2,2-dimethyl-5-[3-methyl-6-(trifluoromethyl)imidazo[4,5-c]pyridin-2-yl]-3H-furo[3,2-b]pyridine]
≥ 80%: mortality at 12 ppm [10, 15] | percent effect (mortality or growth inhibition) at 200 ppm [1] | mortality at 200 ppm [3, 13] | mortality at 200 ppm [4] | percent effect (mortality or growth inhibition) at 200 ppm [6] | percent effect (mortality or growth inhibition) at 200 ppm [8] | mortality at 200 ppm [9, 14]

CCS(=O)(=O)c1cc2nn(C)nc2cc1-c1nc2cc(C(F)(F)F)ncc2n1C [Compound A37, 5-ethylsulfonyl-2-methyl-6-[3-methyl-6-(trifluoromethyl)imidazo[4,5-c]pyridin-2-yl]benzotriazole]
≥ 80%: percent effect (mortality or growth inhibition) at 200 ppm [1] | mortality at 200 ppm [3, 13] | mortality at 24 ppm [11, 16] | mortality at 200 ppm [5] | percent effect (mortality or growth inhibition) at 200 ppm [6] | percent effect (mortality or growth inhibition) at 200 ppm [8] | mortality at 200 ppm [9, 14]

CCS(=O)(=O)c1cc2c(C3CC3)cccc2nc1-c1nc2cc(C(F)(F)F)ncc2n1C [Compound A43, 5-cyclopropyl-3-ethylsulfonyl-2-[3-methyl-6-(trifluoromethyl)imidazo[4,5-c]pyridin-2-yl]quinoline]
≥ 80%: mortality at 200 ppm [12] | percent effect (mortality or growth inhibition) at 200 ppm [1] | percent effect (mortality, anti-feeding or growth inhibition) at 12.5 ppm [2] | mortality at 200 ppm [3, 13] | percent effect (mortality or growth inhibition) at 200 ppm [6] | percent effect (mortality or growth inhibition) at 200 ppm [8] | mortality at 200 ppm [9, 14]

CCS(=O)(=O)c1cc2nc(C(F)(F)F)[nH]c2cc1-c1nc2cc(C(F)(F)F)ncc2n1C [Compound A7, 2-[6-ethylsulfonyl-2-(trifluoromethyl)-3H-benzimidazol-5-yl]-3-methyl-6-(trifluoromethyl)imidazo[4,5-c]pyridine]
≥ 80%: mortality at 200 ppm [12] | mortality at 200 ppm [9, 14]

CCS(=O)(=O)c1cc2c(nc1-c1nc3cc(C(F)(F)F)ncc3n1C)nc(C(F)(F)F)n2C [Compound A33, 6-ethylsulfonyl-1-methyl-5-[3-methyl-6-(trifluoromethyl)imidazo[4,5-c]pyridin-2-yl]-2-(trifluoromethyl)imidazo[4,5-b]pyridine]
≥ 80%: percent effect (mortality or growth inhibition) at 200 ppm [1] | mortality at 200 ppm [3, 13] | mortality at 24 ppm [11, 16] | mortality at 200 ppm [4] | mortality at 200 ppm [5] | percent effect (mortality or growth inhibition) at 200 ppm [6] | percent effect (mortality or growth inhibition) at 200 ppm [8] | mortality at 200 ppm [9, 14]

CCS(=O)(=O)c1cc2ccccc2cc1-c1nc2cc(C(F)(F)F)ncc2n1C [Compound A24, 2-(3-ethylsulfonyl-2-naphthyl)-3-methyl-6-(trifluoromethyl)imidazo[4,5-c]pyridine]
≥ 80%: mortality at 12 ppm [10, 15] | mortality at 200 ppm [12] | percent effect (mortality or growth inhibition) at 200 ppm [1] | percent effect (mortality, anti-feeding or growth inhibition) at 12.5 ppm [2] | mortality at 200 ppm [3, 13] | percent effect (mortality or growth inhibition) at 200 ppm [6] | pest or weed control at 200 ppm [7] | percent effect (mortality or growth inhibition) at 200 ppm [8] | mortality at 200 ppm [9, 14]

CCS(=O)(=O)c1cc2ccccc2nc1-c1nc2cc(C(F)(F)F)ncc2n1C [Compound A22, 3-ethylsulfonyl-2-[3-methyl-6-(trifluoromethyl)imidazo[4,5-c]pyridin-2-yl]quinolone]
≥ 80%: mortality at 12 ppm [10] | percent control (mortality or growth inhibition) at 200 ppm [1] | percent control (mortality, anti-feedant effect or growth inhibition) at 12.5 ppm [2] | mortality at 200 ppm [3] | mortality at 24 ppm [11] | percent control (mortality or growth inhibition) at 200 ppm ([6]; in Glycine max) | pest or weed control at 200 ppm [7] | percent control (mortality or growth inhibition) at 200 ppm [8] | mortality at 200 ppm [9]
